Assays:
Angiotensin II Receptor = target: T1, Angiotensin II Receptor (Bos taurus, UniProt P25104); experiment: Receptor Binding Assay: Binding of [^125 I](Sar^1,Ile^8)AngII to beef adrenal cortex membranes; settings: 60 min, room temperature
T1 construct: The brownish tissue forming the adrenal cortex is scraped off and finely minced with scissors before homogenization; from tissue; host or cells: beef adrenal cortex, microsomal membranes (100,000×g pellet); fresh glands from a local slaughter house (Maxwell-Cohen)
T1 sequence (P25104 1-359): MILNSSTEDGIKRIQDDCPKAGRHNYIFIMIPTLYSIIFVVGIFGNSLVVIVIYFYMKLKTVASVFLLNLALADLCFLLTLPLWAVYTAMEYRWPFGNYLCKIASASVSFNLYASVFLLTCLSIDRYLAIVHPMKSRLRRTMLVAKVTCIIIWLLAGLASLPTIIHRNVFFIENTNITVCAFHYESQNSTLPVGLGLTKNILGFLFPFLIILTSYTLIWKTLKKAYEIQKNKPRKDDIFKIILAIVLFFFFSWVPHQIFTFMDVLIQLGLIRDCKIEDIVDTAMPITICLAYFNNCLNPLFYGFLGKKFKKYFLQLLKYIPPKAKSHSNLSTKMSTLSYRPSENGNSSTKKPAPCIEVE
Description: Beef adrenals are obtained from a local slaughter house (Maxwell-Cohen). [^125 […]. 2200 Ci/mmole, is purchased from Dupont (NEN®, Boston, Mass.). All unlabeled AngII analogs, Dimethylsulfoxide (DMSO), nucleotides, bovine serum albumin (BSA) are purchased from Sigma Chemical Co., St. Louis, Mo. U.S.A. […] Approximately sixteen (16) to twenty (20) beef adrenal glands are processed as follows: fresh adrenal glands received on crushed ice are cleaned of fatty tissues and the tough membranes encapsulating the glands are removed and discarded. The brownish tissue forming the adrenal cortex is scraped off and finely minced with scissors before homogenization. Care is taken to avoid contamination with medullary tissue during dissection. The scraped cortices are suspended in twenty volumes of an ice-cold buffer medium consisting of 10 mM Tris.HCl (pH 7.4 at 22° C.) and containing 1.0 mM EDTA and 0.2M sucrose. Unless otherwise indicated, all subsequent operations are done at 4° C. […] The homogenate is centrifuged first at low speed (3,000×g) for 10 minutes. […] This P2 pellet is discarded and the liquid phase is carefully decanted off in clean centrifuge tubes and recentrifuged at high speed (100,000×g) for 60 minutes. The translucent final pellet is harvested and combined in a small volume (20-50.0 ml) of 50.0 mM Tris.HCl buffer, pH 7.2. A 100 ul aliquot is withdrawn and the protein content of the preparation is determined by the Lowry's method (Lowry, O. H., Rosebrough, […]. and Randall, R. J., Protein measurement with Folin phenol reagent. J. Biol. Chem., […], 265-275, 1951). The pelleted membrane is reconstituted in 50.0 mM Tris.HCl buffer containing 0.1 mM of phenylmethylsulfonyl fluoride (PMSF) to give approximately a protein concentration of 2.5 mg per ml of tissue suspension. […] Receptor Binding Assay: […] In competition studies, experimental compounds are diluted in dimethylsulfoxide (DMSO) and added in 20 ul to wells before the introduction of tissue membranes. […] Assays are performed in triplicate. The wells are left undisturbed for 60 minutes at room temperature. Following incubation, all wells are harvested at once with a Brandel® Harvester especially designed for a 96 well plate (Brandel® Biomedical Research & Development Labs. Inc., Gaithersburg, Md., U.S.A.). The filter discs are washed with 10×1.0 ml of cold 0.9% NaCl to remove unbound ligand. Presoaking the filter sheet in 0.1% polyethyleneimine in normal saline (PEI/Saline) greatly reduces the radioactivity retained by the filter blanks. This method is routinely used. The filters are removed from the filter grid and counted in a Parkard® Cobra Gamma Counter for 1 minutes. (Packard Instrument Co., Downers Grove, Ill, U.S.A.). The binding data are analyzed by the non-linear interactive "LUNDON-1" program (LUNDON SOFTWARE Inc., Cleveland, Ohio U.S.A.).

[1] = test system: ANGIOTENSIN II VASOPRESSOR RESPONSE; experiment: AII Challenge: blockade of angiotensin II vasopressor response in conscious SHR; format: in vivo, rat (Conscious Male Okamoto-Aoki SHR); settings: SHR n=2, 3 mg/kg i.v.
Description: By administering a compound of this invention to a rat, and then challenging with angiotensin II, a blockage of the vasopressor response is realized.
Conscious Male Okamoto-Aoki SHR, 16-20 weeks old, weighing approximately 330 g are purchased from Charles River Labs (Wilmington, Mass.). Conscious rats are restrained in a supine position with elastic tape. The area at the base of the tail is locally anesthetized by subcutaneous infiltration with 2% procaine. The ventral caudal artery and vein are isolated, and a cannula made of polyethylene (PE) 10-20 tubing (fused together by heat) is passed into the lower abdominal aorta and vena cava, respectively. The cannula is secured, heparinized (1,000 I.U./ml), sealed and the wound is closed. The animals are placed in plastic restraining cages in an upright position. The cannula is attached to a Statham P23Db pressure transducer, and pulsatile blood pressure is recorded to 10-15 minutes with a Gould Brush recorder. (Chan et al., (Drug Development Res., 18:75-94, 1989).
Angiotensin II (human sequence, Sigma Chem. Co., St. Louis, MO) of 0.05 and 0.1 ug/kg i.v. is injected into all rats (predosing response). Then a test compound, vehicle or a known angiotensin II antagonist is administered i.v., i.p. or orally to each set of rats. The two doses of angiotensin II are given to each rat again at 30, 60, 90, 120, 180, 240 and 300 minutes post dosing the compound or vehicle. The vasopressor response of angiotensin II is measured for the increase in systolic blood pressure in mmHg. The percentage of antagonism or blockade of the vasopressor response of angiotensin II by a compound is calculated using the vasopressor response (increase in systolic blood pressure) of angiotensin II of each rat predosing the compound as 100%. A compound is considered active if at 30 mg/kg i.v. it antagonized at least 50% of the response.

[2] = AII 0.05 mcg/kg IV, 30 min post dose
[3] = AII 0.05 mcg/kg IV, 60 min post dose
[4] = AII 0.05 mcg/kg IV, 90 min post dose
[5] = AII 0.05 mcg/kg IV, 120 min post dose
[6] = AII 0.05 mcg/kg IV, 180 min post dose
[7] = AII 0.05 mcg/kg IV, 240 min post dose
[8] = AII 0.05 mcg/kg IV, 300 min post dose
[9] = AII 0.1 mcg/kg IV, 30 min post dose
[10] = AII 0.1 mcg/kg IV, 60 min post dose
[11] = AII 0.1 mcg/kg IV, 90 min post dose
[12] = AII 0.1 mcg/kg IV, 120 min post dose
[13] = AII 0.1 mcg/kg IV, 180 min post dose
[14] = AII 0.1 mcg/kg IV, 240 min post dose
[15] = AII 0.1 mcg/kg IV, 300 min post dose

Structure (SMILES)	IC50 (Angiotensin II Receptor)	% Inhibition of AII vasopressor response [1, 2]	Average Change (systolic blood pressure response to AII) [1, 2]	% Inhibition of AII vasopressor response [1, 3]	Average Change (systolic blood pressure response to AII) [1, 3]	% Inhibition of AII vasopressor response [1, 4]	Average Change (systolic blood pressure response to AII) [1, 4]	% Inhibition of AII vasopressor response [1, 5]	Average Change (systolic blood pressure response to AII) [1, 5]	% Inhibition of AII vasopressor response [1, 6]	Average Change (systolic blood pressure response to AII) [1, 6]	% Inhibition of AII vasopressor response [1, 7]	Average Change (systolic blood pressure response to AII) [1, 7]	% Inhibition of AII vasopressor response [1, 8]	Average Change (systolic blood pressure response to AII) [1, 8]	% Inhibition of AII vasopressor response [1, 9]	Average Change (systolic blood pressure response to AII) [1, 9]	% Inhibition of AII vasopressor response [1, 10]	Average Change (systolic blood pressure response to AII) [1, 10]	% Inhibition of AII vasopressor response [1, 11]	further results
CCCCc1nc2ccc(C(O)C3CCCS3(=O)=O)cc2c(=O)n1Cc1ccc(-c2ccccc2-c2nn[nH]n2)cc1 (single isomer, unassigned; isomer 2) [Example 16, 2-Butyl-6-[hydroxy(tetrahydro-2-thienyl)methyl-3-[2'-(1H-tetrazol-5-yl)[1,1'biphenyl]-4-yl]methyl]-4(3H)-quinazolinone S, S-dioxide, isomer 2]	110 nM	72%	12.5 mmHg	30%	31.5 mmHg	61%	17.5 mmHg	71%	13 mmHg	39%	27.5 mmHg	39%	27.5 mmHg	33%	30 mmHg	43%	20 mmHg	64%	12.5 mmHg	36%	Average Change (systolic blood pressure response to AII) [1, 11]: 22.5 mmHg; % Inhibition of AII vasopressor response [1, 12]: 50%; Average Change (systolic blood pressure response to AII) [1, 12]: 17.5 mmHg; % Inhibition of AII vasopressor response [1, 13]: 14%; Average Change (systolic blood pressure response to AII) [1, 13]: 30 mmHg; % Inhibition of AII vasopressor response [1, 14]: 0%; Average Change (systolic blood pressure response to AII) [1, 14]: 35 mmHg; % Inhibition of AII vasopressor response [1, 15]: -21%; Average Change (systolic blood pressure response to AII) [1, 15]: 42.5 mmHg
CCCCc1nc2ccc(C(C)(O)C3CCN(C)C3=O)cc2c(=O)n1Cc1ccc(-c2ccccc2-c2nn[nH]n2)cc1 (single isomer, unassigned; isomer 1) [Example 47, 2-Butyl-6-1-hydroxy-1-(1-methyl-2-oxo-3-pyrrolidinyl)ethyl]-3-[[2'-[1H(tetrazol-5yl)-[1,1'-biphenyl]-4-yl]methyl-4(3H)-quinazolinone isomer 1]	40 nM	75%	10 mmHg	75%	10 mmHg	63%	15 mmHg	69%	12.5 mmHg	75%	10 mmHg	38%	25 mmHg	29%	28.5 mmHg	73%	11.5 mmHg	65%	15 mmHg	76%	Average Change (systolic blood pressure response to AII) [1, 11]: 10 mmHg; % Inhibition of AII vasopressor response [1, 12]: 82%; Average Change (systolic blood pressure response to AII) [1, 12]: 7.5 mmHg; % Inhibition of AII vasopressor response [1, 13]: 59%; Average Change (systolic blood pressure response to AII) [1, 13]: 17.5 mmHg; % Inhibition of AII vasopressor response [1, 14]: 29%; Average Change (systolic blood pressure response to AII) [1, 14]: 30 mmHg; % Inhibition of AII vasopressor response [1, 15]: 18%; Average Change (systolic blood pressure response to AII) [1, 15]: 35 mmHg

— patent US5288720A, “Angiotensin II receptor blocking 2,3,6 substituted quinazolinones” (American Cyanamid Company, priority 1993, dated 1994)
